The values below come from patent US9156860B2, “Boron-containing small molecules” (Anacor Pharmaceuticals, Inc., priority 2011, dated 2015).

Data set [1] has as its system Lone star tick larvae (Amblyomma americanum). Kind of data set: Larval immersion microassay against larval-stage Lone star ticks. The settings on record: Amblyomma americanum, 24 h, read-out: activity (percent larval mortality). The procedure:
The larval immersion microassay was conducted as described in detail in White, et al., J. Med. Entomol. […] Compounds of the invention were formulated in dimethylsulfoxide (DMSO) to prepare a stock solution at a concentration of at least 10 mM. […] Approximately 30-50 Lone star tick larvae (Amblyomma americanum) were submerged into each well containing compounds. After a 30 minute immersion period, larvae were removed with a wide-bore pipette tip in 0.05 ml of fluid, dispensed into a commercial paper tissue biopsy bag which was sealed at the top with a plastic dialysis clip, inverted and allowed to air dry for 60 minutes. Bags containing larvae were then incubated at approximately 27 degrees Celsius and >90% relative humidity. After 24 hours, bags were opened, live and dead larvae were counted and percent larval mortality was calculated.
7 contains one chiral center, and is therefore a racemic mixture comprised of approximately 50% R- and 50% S-enantiomer. In vitro and surrogate animal (rat) studies were conducted to evaluate the biological activity of the R- and S-enantiomers of 7. For the in vitro study, larvae of the Lone star tick (Amblyomma americanum) were exposed to 17 (S-enantiomer) and 18 (R-enantiomer) using the larval immersion microassay at a concentration of no greater than 0.3 mM. Following exposure, larvae were removed, transferred to a tissue biopsy bag and incubated at approximately 27 degrees Celsius and >90% relative humidity. After 24 hours, biopsy bags were opened and the numbers of live and dead larvae were determined.

Data set [2] relates to cat flea (Ctenocephalides felis). Kind of data set: Example 4: efficacy against cat flea infestations on dogs. Type of data set: in vivo. To be noted: 25 mg/kg oral, solid dosage form, Day 32. The procedure:
The therapeutic (knockdown) and residual efficacy of 7, administered orally at a point dosages of 5 and 25 mg/kg bodyweight, was evaluated against adult American dog tick (D. variabilis) and cat flea (C. felis) infestations on dogs. Sixteen (16) male and female beagle dogs were allocated to one of four treatment groups: Untreated control group (n=4 dogs); 7, 5 mg/kg liquid oral dosage form (n=4 dogs); 7, 25 mg/kg liquid oral dosage form (n=4 dogs); and 7, 25 mg/kg solid oral dosage form. Liquid dosage forms were prepared by dissolving 7 in a solution of 55% polyethylene glycol-300, 35% propylene glycol and 10% water at 25 mg/ml. Solid oral dosage form was prepared by thoroughly mixing 7 with microcrystalline cellulose and croscarmellose sodium (50:47:3, w/w) and placing into size 00 gelatin capsules. On Day 0, all dogs were orally administered 7 at the prescribed point dosages. […]
The total number of live ticks or fleas (normal plus moribund classification) present on each dog was determined for each interval, and this number was transformed using the natural logarithm transformation plus one (Ln count+1); addition of one to each count served to adjust for counts that were zero. […] GM percent efficacy of treatments was calculated using the following formula: […]

Data set [3] deals with adult American dog tick (Dermacentor variabilis). Kind of data set: Example 5: efficacy against adult American dog tick infestations on dogs. The format is in vivo. The procedure:
(§1) The therapeutic (knockdown) and residual efficacy of 7 and 8, each administered orally at a point dose of either 25 mg/kg or 50 mg/kg bodyweight, was evaluated against adult tick (Dermacentor variabilis and Rhipicephalus sanguineus) infestations on dogs. Twenty (20) male and female beagle dogs were allocated to one of five treatment groups, four (4) dogs per group: Untreated control; 7, 25 mg/kg; 7, 50 mg/kg; 8, 25 mg/kg; and 8, 50 mg/kg. On Day −1, all dogs were infested with approximately 50 unfed, adult D. variabilis ticks. On Day 0, dogs were orally administered gelatin capsules containing either 7 or 8 (50% technical active, 47% microcrystalline cellulose and 3% croscarmellose sodium, w/w) so as to achieve the desired point dosages. Ticks were counted and classified on all dogs, but not removed, on Day 1 (approximately 24 hours after treatment). On Day 2, approximately 48 hours after treatment, ticks were counted, classified and removed. Dogs were re-infested with the same number of D. variabilis ticks on Days 5, 12 and 19 with corresponding 48 hour post-infestation tick counts on Days 7, 14 and 21. Dogs were infested with approximately 50 unfed, adult brown dog ticks (Rhipicephalus sanguineus; approximately 50% male and 50% female) on Days 15 and 28, with corresponding 48 hour post-infestation tick counts on Days 17 and 30. GM percent efficacy of treatments against both tick species was calculated using the following formula: […]

A short description of data set [4]: Tolerability of oral treatment in dogs. The format is in vivo, beagle dogs. The procedure: The therapeutic (knockdown) and residual efficacy of 7, administered orally at a point dosages of 5 and 25 mg/kg bodyweight, was evaluated against adult American dog tick (D. variabilis) and cat flea (C. felis) infestations on dogs. Sixteen (16) male and female beagle dogs were allocated to one of four treatment groups: Untreated control group (n=4 dogs); 7, 5 mg/kg liquid oral dosage form (n=4 dogs); 7, 25 mg/kg liquid oral dosage form (n=4 dogs); and 7, 25 mg/kg solid oral dosage form. Liquid dosage forms were prepared by dissolving 7 in a solution of 55% polyethylene glycol-300, 35% propylene glycol and 10% water at 25 mg/ml. Solid oral dosage form was prepared by thoroughly mixing 7 with microcrystalline cellulose and croscarmellose sodium (50:47:3, w/w) and placing into size 00 gelatin capsules. On Day 0, all dogs were orally administered 7 at the prescribed point dosages. Twenty-four (24) hours before treatment (Day −1), all dogs were infested with approximately 50 unfed, adult-stage American dog ticks (D. variabilis; approximately 50% male and 50% female). On Day 2, approximately 48 hours after treatment, ticks were removed and counts were conducted to determine the number and life-status classification of ticks present on all dogs (normal, moribund or dead; attached or detached). For all groups, dogs were re-infested with approximately 50 unfed, adult D. variabilis ticks on Days 5 and 12, with tick classification, counts and removal on Days 7 and 14 (approximately 48 hours after each infestation). For negative control and 7 (25 mg/kg solid oral dosage form) groups, dogs were re-infested with approximately 50 unfed, adult D. variabilis ticks on Days 19 and 28, with tick classification, counts and removal on Days 21 and 30. Immediately following removal of ticks on Day 30, dogs in the negative control and 7 (25 mg/kg solid oral dosage form) groups were infested with approximately 100 unfed, adult cat fleas (C. felis). Flea counts were conducted approximately 48 hours later, on Day 32.
as §1
The efficacy of 7, administered orally at a point dose of 25 mg/kg bodyweight, was evaluated against adult tick (Dermacentor variabilis) infestations. Twelve (12) male and female beagle dogs were allocated to three treatment groups: Untreated, negative control A; 7 group B; and 7 group C (n=4 dogs per group). Dogs were infested with approximately 50 unfed, adult D. variabilis ticks on Days −1, 5, 12, 19 and 28. […]

Where only a bound is given, the exact number is not on record here.

The mortality is the percentage killed. As to `CC1(C)OB(O)c2ccc(C3=NOC(c4cc(Cl)c(Cl)c(Cl)c4)(C(F)(F)F)C3)cc21` (racemic) [Compound 7, 3,3-Dimethyl-5-(5-(3,4,5-trichlorophenyl)-5-(trifluoromethyl)-4,5-dihydroisoxazol-3-yl)benzo[c][1,2]oxaborol-1(3H)-ol], the mortality at 300 µM in data set [1] was ≥ 80%. Also, the “Geometric mean group live flea count” value in data set [2] was 3.9. The “% efficacy” value in data set [3] (25 mg/kg oral capsule, Day 1) is “(90.4) %”; in data set [3] (25 mg/kg oral capsule, Day 14), “(67.6) %”; in data set [3] (25 mg/kg oral capsule, Day 21), “(71.1) %”; in data set [3] (50 mg/kg oral capsule, Day 1), “(83.0) %”; in data set [3] (50 mg/kg oral capsule, Day 14), “(88.5) %”; in data set [3] (50 mg/kg oral capsule, Day 21), “(80.1) %”. Also, the “Geometric mean group live tick count” value is recorded as 1.0 in data set [3] (25 mg/kg oral capsule, Day 1); 0.0 in data set [3] (25 mg/kg oral capsule, Day 2); 0.7 in data set [3] (25 mg/kg oral capsule, Day 7); 5.3 in data set [3] (25 mg/kg oral capsule, Day 14); 4.7 in data set [3] (25 mg/kg oral capsule, Day 21); 1.8 in data set [3] (50 mg/kg oral capsule, Day 1). Besides, the “Geometric mean group live tick count” value in data set [3] (50 mg/kg oral capsule, Day 2) worked out at 0.0; in data set [3] (50 mg/kg oral capsule, Day 7), 0.4; in data set [3] (50 mg/kg oral capsule, Day 14), 1.9; in data set [3] (50 mg/kg oral capsule, Day 21), 3.2. The tolerability entry is reported as “well tolerated” in data set [4] (oral 25 mg/kg, Example 7); “well tolerated” in data set [4] (oral 50 mg/kg, Example 6); “well tolerated” in data set [4] (oral 5 or 25 mg/kg, Example 4); “well tolerated” in data set [4] (oral 25 or 50 mg/kg, Example 5).
